This note sets out measurements from PMC7503933, “Benzyl Furanones and Pyrones from the Marine-Derived Fungus Aspergillus terreus Induced by Chemical Epigenetic Modification” (Molecules, 2020).

Molecules are shown by their SMILES.

This assay has as its target T1, PTP1B (Homo sapiens, UniProt P18031).
T1 construct: gene PTPN1; human recombinant (Abcam ab51277)
T1 sequence (P18031 1-435): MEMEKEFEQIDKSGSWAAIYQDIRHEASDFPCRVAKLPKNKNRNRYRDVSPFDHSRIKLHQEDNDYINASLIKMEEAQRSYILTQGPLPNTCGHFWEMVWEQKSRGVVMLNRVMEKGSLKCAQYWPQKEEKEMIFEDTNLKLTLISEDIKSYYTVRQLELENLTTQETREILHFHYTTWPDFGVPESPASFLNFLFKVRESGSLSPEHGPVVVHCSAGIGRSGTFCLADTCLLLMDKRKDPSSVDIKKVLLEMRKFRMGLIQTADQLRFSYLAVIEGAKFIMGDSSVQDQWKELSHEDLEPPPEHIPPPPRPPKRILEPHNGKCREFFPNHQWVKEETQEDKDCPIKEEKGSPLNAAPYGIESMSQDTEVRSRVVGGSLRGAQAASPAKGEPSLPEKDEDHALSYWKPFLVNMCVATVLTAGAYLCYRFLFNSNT
Kind of assay: recombinant PTP1B pNPP hydrolysis assay, absorbance […] nm. The assay is classed as biochemical.
Usually IC50 stands for the concentration at which inhibition is half-maximal. For the compound `COc1cc(O)cc(C)c1C[C@]1(C(N)=O)OC(C)=CC1=O` [(−)-1, (−)-asperfuranone], the IC50 was found to be 35.5 µM.

Consider `COc1cc(O)cc(C)c1CC1(C(N)=O)OC(C)=CC1=O` (racemic) [(±)-1, Asperfuranone (1)], for which the IC50 is 45.8 µM.

`COc1cc(O)cc(C)c1C[C@@]1(C(N)=O)OC(C)=CC1=O`: the IC50 worked out at 17.3 µM.

With `COc1cc(O)cc(C)c1Cc1c(O)cc(C)oc1=O` [compound 2, asperpyranone A], the IC50 was determined as 42.3 µM.
